The results in this text go back to BindingDB's records for patent US11858959 (Ardelyx, 2024).

In the assay the target is T1, 11-beta-hydroxysteroid dehydrogenase type 2 (Homo sapiens, UniProt P80365).
T1 sequence (P80365 whole entry): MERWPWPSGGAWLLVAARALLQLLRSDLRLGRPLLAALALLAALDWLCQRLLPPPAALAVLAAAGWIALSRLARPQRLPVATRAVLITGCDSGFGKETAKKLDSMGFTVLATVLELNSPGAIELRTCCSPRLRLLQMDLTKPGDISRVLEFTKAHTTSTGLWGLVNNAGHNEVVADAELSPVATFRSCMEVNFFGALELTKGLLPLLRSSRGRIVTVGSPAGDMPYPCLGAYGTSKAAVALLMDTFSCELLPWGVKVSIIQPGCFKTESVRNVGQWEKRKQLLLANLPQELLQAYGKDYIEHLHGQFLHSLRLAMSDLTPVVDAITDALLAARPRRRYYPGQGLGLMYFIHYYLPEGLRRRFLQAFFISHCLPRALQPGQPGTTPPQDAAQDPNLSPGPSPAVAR
Description: HSD2 Activity. The protocol:
Human descending colon epithelial stem cells were cultured as 3D organoids in accordance with Sato et al Gastroenterology. 2011 November; 141(5): 1762-72. Organoids were dissociated using TrypLE Express (life technologies) and plated on 96-well transwells (corning) in supplemented basal media (SBM-advanced DMEM/F12 containing 10 mM HEPES, 1:100 Glutamax, 1:100 penicillin/streptomycin, 1:100N2, 1:50 B27, 1 mM N-acetylcysteine, 10 nM [Leu15]-gastrin I) containing 100 ng/mL Wnt3A (W), 50 ng/mL EGF (E), 100 ng/mL Noggin (N), 500 ng/mL RSpondinl (R), 500 nM A83-01 (S) and 2.5 uM thiazovivin (T). Cultures were differentiated using SBM containing ENRA and 30 nM aldosterone on day 3, and cultures were used for assay on day 6 or 7. Compounds were diluted in DMSO and serial dilutions prepared by titrating in DMSO. Compounds were then diluted into DMEM/F12. Transwell plates containing descending colon cultures were washed twice with DMEM/F12 and compound was added to the apical compartment. Cells were incubated with test compound for 30 minutes at 37 C., 5% CO2 to equilibrate across the cell membrane. […] Cortisol levels were measured using a cortisol HTRF assay kit as described by the manufacturer (Cisbio). Concentration-response curves were then plotted and IC50 (and pIC50) values were determined using least squares non-linear regression.

By IC50 is commonly meant the midpoint of a concentration-inhibition curve. On to `Cc1oc(=O)oc1COC(=O)[C@]1(C)[C@@H](OC(=O)CN(C)C)CC[C@@]2(C)[C@H]1CC[C@]1(C)[C@@H]2C(=O)C=C2[C@@H]3C[C@@](C)(C(=O)O)CC[C@]3(C)CC[C@]21C` [US11858959, Compound 290-2], for which the midpoint of inhibition, the IC50, lay at 251 nM.
